This note sets out measurements from ChEMBL document CHEMBL1133915, “Design and synthesis of novel antibacterial agents with inhibitory activity against DNA polymerase III” (Bioorg Med Chem Lett, 2001).

For orientation: inhibition means how much of the control response was suppressed. A word on the MIC: it is the least concentration at which growth counts as inhibited. Broadly, the IC50 is the concentration at which inhibition is half-maximal. A low value points to greater potency.

The test system of assay [1] is Staphylococcus aureus. As to the kind of experiment: In vitro percent inhibition against Pol III of Staphylococcus aureus at a concentration of 500 uM.
For assay [2], the system named is Enterococcus faecium. In words: Tested for in vitro anti bacterial activity against Enterococcus faecium RLAI (ampicillin and imipenem resistant). In kind it is functional.
Assay [3] has as its system Staphylococcus aureus. In words: Tested for in vitro anti bacterial activity against Staphylococcus aureus MB2985 […]. In kind it is functional.
The subject of assay [4] is Streptococcus pneumoniae. In words: Tested for in vitro anti bacterial activity against Streptococcus pneumoniae CL5350. In kind it is functional.
The subject of a further assay is Bacillus subtilis. As to the kind of experiment: Tested for in vitro anti bacterial activity against Bacillus subtilis ATCC- 6633. Type of assay: functional.
Assay [5] in a line: Tested for in vitro antibacterial activity against DNA polymerase III. On the set-up: species or system Staphylococcus aureus.
Assay [6] is described as follows: Tested for in vitro antibacterial activity against DNA polymerase III of Staphylococcus aureus.
Assay [7] concerns Enterococcus faecium. In words: Tested for in vitro anti bacterial activity against Enterococcus faecium RLAI (ampicillin and imipenem resistant), growth unaffected at highest level. Type of assay: functional.
The subject of assay [8] is Streptococcus pneumoniae. As to the kind of experiment: Tested for in vitro anti bacterial activity against Streptococcus pneumoniae CL5350 and growth affected but tested at highest level of inhibition. Type of assay: functional.

Values after ≈ are worked out from the molar mass of the structure shown.

In the assay with Staphylococcus aureus [1], `Cc1cc(Nc2ccc(C)c(I)c2)nc(N)n1` gave an inhibition of 21%.
`CCc1cc(Nc2cc(Cl)nc(N)n2)ccc1C`: the MIC with Enterococcus faecium [2] is 13 µg/mL (≈ 49.5 µM); against Staphylococcus aureus [3], > 26 µg/mL; in the assay on Streptococcus pneumoniae [4], 26 µg/mL (≈ 99 µM); in the assay on Bacillus subtilis it was 3 µg/mL (≈ 11.4 µM). In [5], the IC50 was 53 µM.
In [6], `CCc1cc(Nc2cc(Oc3ccc(Br)cc3)nc(N)n2)ccc1C` yielded an IC50 of 10 µM. The compound further gave an inhibition with Staphylococcus aureus [1] of 97%.
With `Nc1nc(Cl)cc(Nc2ccc3c(c2)CCC3)n1`, the MIC against Enterococcus faecium [7] is > 26 µg/mL; against Staphylococcus aureus [3], > 26 µg/mL; in the assay on Streptococcus pneumoniae [8], > 26 µg/mL; against Bacillus subtilis, 3 µg/mL (≈ 11.5 µM). This compound also gave an IC50 in [5] of 119 µM.
In assay [6], `CCc1cc(Nc2cc(Oc3cccc(C)c3)nc(N)n2)ccc1C` yielded an IC50 of 54 µM. This compound also returned an inhibition with Staphylococcus aureus [1] of 88%.
In the assay on Staphylococcus aureus [1], `CSc1cc(Nc2ccc(C)c(I)c2)nc(N)n1` registered an inhibition of 20%.
On to `Nc1nc(Cl)cc(Nc2ccc(Cl)c(Cl)c2)n1`, for which the MIC was 29 µg/mL (≈ 100 µM) with Enterococcus faecium [2], 29 µg/mL (≈ 100 µM) against Staphylococcus aureus [3], > 29 µg/mL in the assay with Streptococcus pneumoniae [8] and 7 µg/mL (≈ 24.2 µM) in the assay with Bacillus subtilis. Also, 98 µM corresponded to half-maximal inhibition in assay [5] (IC50).
Consider `Cc1ccc(Nc2cc(Cl)nc(N)n2)cc1Br`, for which the figures for the MIC in the assay with Enterococcus faecium [2], against Streptococcus pneumoniae [4] and in the assay with Bacillus subtilis were 31 µg/mL (≈ 98.9 µM), 31 µg/mL (≈ 98.9 µM) and 8 µg/mL (≈ 25.5 µM), respectively. The compound further gave an IC50 in assay [5] of 94 µM.
Turning to `Cc1ccc(Nc2cc(Cl)nc(N)n2)cc1Cl`, the MIC turned out to be 27 µg/mL (≈ 100 µM) in the assay with Enterococcus faecium [2], 27 µg/mL (≈ 100 µM) against Staphylococcus aureus [3], 27 µg/mL (≈ 100 µM) against Streptococcus pneumoniae [4] and 13 µg/mL (≈ 48.3 µM) with Bacillus subtilis. This compound displayed an IC50 in assay [5] of 126 µM.
As for `CCc1cc(Nc2cc(Oc3ccc(Cl)cc3)nc(N)n2)ccc1C`, the inhibition in the assay with Staphylococcus aureus [1] turned out to be 13%.
The same measure, in the same setting: for `Cc1ccc(Nc2cc(N(C)C)nc(N)n2)cc1C` the value was 27%.
Regarding `CC(C)(C)c1cccc(Nc2cc(Cl)nc(N)n2)c1`, the MIC with Enterococcus faecium [2] came out at 14 µg/mL (≈ 50.6 µM); in the assay with Staphylococcus aureus [3] it was 7 µg/mL (≈ 25.3 µM); against Streptococcus pneumoniae [4], 14 µg/mL (≈ 50.6 µM); against Bacillus subtilis, 7 µg/mL (≈ 25.3 µM). The compound further showed an IC50 in assay [5] of 89 µM.
For `Cc1ccc(Nc2cc(Cl)nc(N)n2)cc1C`, the MIC against Enterococcus faecium [7] is > 25 µg/mL; in the assay with Staphylococcus aureus [3], > 25 µg/mL; in the assay with Streptococcus pneumoniae [8] it was > 25 µg/mL; in the assay with Bacillus subtilis, 6 µg/mL (≈ 24.1 µM). For the same compound, the IC50 in assay [5] worked out at 115 µM.
For `CCc1cc(Nc2cc(Oc3ccc(F)cc3)nc(N)n2)ccc1C`, the inhibition in the assay with Staphylococcus aureus [1] is 33%.
On the same count and under the same terms, in the case of `Cc1ccc(Nc2cc(S)nc(N)n2)cc1I` it was 54%.
Regarding `Cc1ccc(Nc2cc(Cl)nc(N)n2)cc1I`, the MIC against Enterococcus faecium [2] was 36 µg/mL (≈ 99.8 µM); against Staphylococcus aureus [3], > 36 µg/mL; with Streptococcus pneumoniae [4], 18 µg/mL (≈ 49.9 µM); in the assay with Bacillus subtilis it was 5 µg/mL (≈ 13.9 µM). Also, the IC50 in assay [5] came to 51 µM.
Turning to `Cc1ccc(Nc2cc(Sc3ccccc3)nc(N)n2)cc1I`, the inhibition in the assay with Staphylococcus aureus [1] is 2%.
